Values of other authors in PMC3853759 (International Journal of Pharmaceutical Investigation, 2013).

## [Zn] [Zn, Zinc]
rats
  oral Zn dose producing acute toxicity: 237 to 623 mg/kg
mice
  oral Zn dose producing acute toxicity: 86 to 605 mg/kg
